# Source: ChEMBL document CHEMBL1201862, “PubChem BioAssay data set” (2004)
# Active and inactive are the calls of the source.
# Columns and labels:
# cells [1] = format: functional
# Streptococcus = test: GAS UMAA2166 growth inhibition – luminescence, BacTiterGlo, counter-screen for streptokinase expression inhibitor project, dose response (AID 1915); format: functional, organism-based;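 further: potency for reduction of bacterial viability or growth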
# [2] = test system: Streptococcus sp. 'group A'; test: Streptococcus pyogenes SK(-)GAS viability under kanamycin – luminescence, BacTiterGlo, confirmation, counter-screen for streptokinase expression inhibitor project, dose response (AID 1900); format: functional, organism-based
# cells [3] = format: functional, cell-based
# INS1 = test: INS-1E survival protection against cytokine death – cell-based, luminescence, retest, dose response (AID 449756); format: functional; conditions: Rattus norvegicus;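 further: cell death triggered by IL-1 beta plus TNF-alpha plus IFN-gamma mixture; protective hits raise ATP signal compared with cytokine alone wells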
# Streptokinase A = target: T1, Streptokinase A (Streptococcus pyogenes serotype M1, UniProt P10520); test: viability-normalized secreted streptokinase activity reduction – plasminogen activation absorbance, OD405, dose response (AID 1914); format: functional, Streptococcus pyogenes M1 GAS;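 further: secreted streptokinase activity via plasminogen activation per viability signal from cell pellet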
# T1 sequence (P10520 whole entry): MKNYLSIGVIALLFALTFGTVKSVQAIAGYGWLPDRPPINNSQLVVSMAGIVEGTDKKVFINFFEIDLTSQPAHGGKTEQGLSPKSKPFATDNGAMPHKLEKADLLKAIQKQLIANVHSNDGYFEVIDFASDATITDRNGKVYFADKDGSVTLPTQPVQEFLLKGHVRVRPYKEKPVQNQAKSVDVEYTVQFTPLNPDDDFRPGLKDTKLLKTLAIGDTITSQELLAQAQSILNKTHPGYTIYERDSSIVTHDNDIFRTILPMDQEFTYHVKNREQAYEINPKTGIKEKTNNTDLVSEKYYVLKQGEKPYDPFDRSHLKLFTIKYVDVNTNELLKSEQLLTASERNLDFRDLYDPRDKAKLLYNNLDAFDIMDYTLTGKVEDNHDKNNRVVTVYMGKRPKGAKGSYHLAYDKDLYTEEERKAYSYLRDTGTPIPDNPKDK
# cells [4] = format: functional, cell-based; remark: listed apart in the source
# P388/ADR = test: cells; format: functional; conditions: Mus musculus
# SN12K1 = test: cells; format: functional; conditions: Homo sapiens
# P388 = test: cells; format: functional; conditions: Mus musculus
# Paired box protein Pax-8 = Paired box protein Pax-8 (Homo sapiens, UniProt Q06710); test: PAX8 transcriptional activity inhibition in RMG-I – RMG-I cells, luciferase, cherry-pick, dose response (AID 687027); format: functional, cell-based;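 further: luciferase reporter driven by Pax8 target thyroperoxidase promoter measured by SteadyGlo luminescence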
# H9c2 = test: cells; format: functional, cell-based; conditions: Rattus norvegicus, H9c2, Myocardium;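 further: confirmatory concentration-response retest of ultra-high-throughput screening hits for modulation of myocardial damage; cell death induced by hydrogen peroxide oxidative stress; compound pretreatment for 60 min then peroxide exposure for 2 h; potency is for protecting the cells against peroxide damage rather than for killing them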
# [5] = alpha-synuclein stem-loop luciferase translation blockers – H4 neuroglioma cells, luminescence, confirmation (AID 1988); format: functional, cell-based
# [6] = Luminescence Cell-Based Dose Response HTS to Identify Inhibitors of 5'UTR Stem-Loop Driven Prion Protein mRNA Translation in H4 Neuroglioblastoma Cells. [Related pubchem assays: 1827 (Project Summary), 1813 (Primary HTS)]; format: functional
# [7] = luciferase reporter signal suppression in cells – H4 neuroglioma cells, luminescence, dose response (AID 1990); format: functional, cell-based
# [8] = fluconazole-exposed Candida albicans growth modulators – fluorescence, retest, confirmation (AID 2467); format: functional, cell-based
# [9] = NIH-3T3 fibroblast cytotoxicity, dose response, cytotoxicity control, cell-based, fluorescence, Alamar Blue, secondary assay (AID 2327); format: functional;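 further: NIH-3T3 mouse fibroblasts cultured with fluconazole at 8 µg/mL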
# Vero = test: cells; format: functional; conditions: Chlorocebus sabaeus
# [10] = target: T2, Ubiquitin-conjugating enzyme E2 N (Homo sapiens, UniProt P61088); format: functional;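 further: Dose-response confirmation in a TR-FRET assay detecting UBC13-driven polyubiquitin chain formation, inhibition measured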
# T2 sequence (P61088 whole entry): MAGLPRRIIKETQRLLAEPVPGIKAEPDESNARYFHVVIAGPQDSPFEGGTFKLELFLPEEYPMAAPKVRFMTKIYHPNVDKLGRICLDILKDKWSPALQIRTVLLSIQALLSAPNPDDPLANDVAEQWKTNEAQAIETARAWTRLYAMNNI
# Paired box protein Pax-8, sequence (Q06710 whole entry): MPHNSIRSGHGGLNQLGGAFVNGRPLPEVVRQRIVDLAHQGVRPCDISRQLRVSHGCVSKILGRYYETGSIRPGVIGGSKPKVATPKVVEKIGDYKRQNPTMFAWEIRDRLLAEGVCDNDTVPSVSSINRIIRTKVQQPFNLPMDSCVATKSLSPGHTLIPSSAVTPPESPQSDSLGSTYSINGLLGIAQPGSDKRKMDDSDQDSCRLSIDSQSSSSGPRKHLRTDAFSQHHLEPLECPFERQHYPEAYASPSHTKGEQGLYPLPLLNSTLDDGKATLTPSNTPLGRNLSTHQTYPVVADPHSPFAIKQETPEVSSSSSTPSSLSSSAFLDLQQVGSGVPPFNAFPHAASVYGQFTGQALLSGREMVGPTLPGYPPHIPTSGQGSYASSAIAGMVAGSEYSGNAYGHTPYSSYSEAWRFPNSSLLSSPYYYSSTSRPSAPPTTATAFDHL
smiles,measurement,setting,value
CCOC(=O)COc1ccc2c(=O)c(-c3ccccc3OC)coc2c1,IC50,cells [1],1.45 µM (active)
Cc1cc(C)nc(N/N=C/c2cc(Br)ccc2O)n1,EC50,Streptococcus,146 µM (active)
same,EC50,[2],8.51 µM (active)
same,EC50,cells [3],> 350 µM (not active)
same,AC50,INS1,3.35 µM (active)
same,EC50,Streptokinase A,> 150 µM (not active)
same,EC50,cells [4],7.66 µM (active)
CC[C@]12C=CCN3CC[C@@]4(c5ccc(OC)cc5N(C)[C@H]4[C@@](O)(C(=O)OC)[C@@H]1OC(C)=O)[C@@H]32,GI50,P388/ADR,95.3 µM (inactive)
same,GI50,SN12K1,193 µM (inactive)
same,GI50,P388,14.5 µM (inactive)
O=S(=O)(Nc1cccc(-c2cn3cccnc3n2)c1)c1ccc(Cl)cc1,AC50,Paired box protein Pax-8,43.5 µM (active)
O=c1cc(-c2cccnc2)oc2c1ccc1ccccc12,IC50,H9c2,> 79 µM (inactive)
C/C(=N\NC(=[Se])N(C)C)c1ccccn1,GI50,P388/ADR,< 0.01 µM (active)
same,GI50,SN12K1,< 0.01 µM (active)
same,GI50,P388,< 0.01 µM (active)
Cc1cccnc1NC(=O)c1c(O)c2ccccc2n(C)c1=O,IC50,cells [1],25 µM (active)
COc1cc(C(=O)N/N=C/C2CC=CCC2)cc(OC)c1OC (stereo not given),EC50,[5],> 120 µM (not active)
same,EC50,[6],> 120 µM (not active)
same,EC50,[7],> 120 µM (not active)
O=C(N/N=C/c1cccs1)c1cncc(Br)c1,IC50,cells [1],10.7 µM (active)
CCOC(=O)CN1CCS/C1=N/C#N,GI50,P388/ADR,> 100 µM (inactive)
same,GI50,SN12K1,> 100 µM (inactive)
same,GI50,P388,> 100 µM (inactive)
CCN1C(=O)/C(=C/c2nc(O)c3ccccc3n2)c2ccccc21,IC50,H9c2,> 79 µM (inactive)
[N-]=[N+]=CC(=O)CCC(N)C(=O)O (stereo not given),GI50,P388/ADR,0.112 µM (active)
same,GI50,SN12K1,0.871 µM (active)
same,GI50,P388,0.0991 µM (active)
COc1ccc(C(=O)Nc2ccccc2N2CCOCC2)cc1[N+](=O)[O-],EC50,[5],> 120 µM (not active)
same,EC50,[6],> 120 µM (not active)
same,EC50,[7],> 120 µM (not active)
CCNc1nc(SCc2ccccc2)nc(N2CCOCC2)n1,EC50,[5],16.8 µM (active)
same,EC50,[6],> 120 µM (not active)
same,EC50,[7],13.1 µM (active)
CC(C)[C@](O)(C(=O)OCC1CC[N+]2([O-])CC[C@@H](O)C12)[C@H](C)O (stereo not given in full),GI50,P388/ADR,> 375 µM (inactive)
same,GI50,SN12K1,> 375 µM (inactive)
same,GI50,P388,> 364 µM (inactive)
COc1ccc(C(=O)Nc2ccc[n+](-c3nc4ccccc4nc3[N-]S(=O)(=O)c3ccccc3)c2)cc1,EC50,[5],> 120 µM (not active)
same,EC50,[6],> 120 µM (not active)
same,EC50,[7],> 120 µM (not active)
Cn1c(=O)[nH]c(=O)c2c1nc(Br)n2CC(O)COc1ccc(Cl)cc1 (stereo not given),IC50,H9c2,> 79 µM (inactive)
CC(=O)c1c(C)oc2ccc(N(C(C)=O)S(=O)(=O)c3ccc(Cl)c([N+](=O)[O-])c3)cc12,EC50,[5],7.59 µM (active)
same,EC50,[6],8.95 µM (active)
same,EC50,[7],7.87 µM (active)
COc1cc2[nH]c(Cl)c([N+](=O)[O-])c2cc1OC,IC50,cells [1],23.1 µM (active)
COc1ccc(NCc2nnc(O)c3ccccc23)cc1,IC50,H9c2,> 79 µM (inactive)
CCc1ccccc1N=C(S)N1CCCCCC1,EC50,[8],> 38 µM (not active)
same,EC50,[9],42.1 µM (active)
O=C(CN1C(=O)COc2ccccc21)NCCCN1CCc2ccccc2C1,EC50,[8],> 38 µM (not active)
same,EC50,[9],> 150 µM (inactive)
CN(C(=O)CCN1C(=O)/C(=C/c2ccc(F)cc2)SC1=S)C1CCS(=O)(=O)C1 (stereo not given),CC50,Vero,> 25 µM (active)
CC(=O)NC(c1cccs1)c1cc(Cl)c2ccccc2c1O (stereo not given),IC50,[10],> 20 µM (inactive)
CCCCn1c(N2CCCC2)nc2c1c(=O)[nH]c(=O)n2C,EC50,[5],> 120 µM (not active)
same,EC50,[6],> 120 µM (not active)
same,EC50,[7],> 120 µM (not active)
O=c1cc(CSc2ccc([N+](=O)[O-])cc2)nc2sccn12,IC50,H9c2,> 79 µM (inactive)
CCOc1ncccc1C(=O)Nc1cccc(-c2nc3cccnc3s2)c1,IC50,H9c2,> 79 µM (inactive)
Nc1ncnc2c1nnn2C1OC(CO)C(O)C1O (stereo not given),GI50,P388/ADR,8.43 µM (inactive)
same,GI50,SN12K1,1.71 µM (inactive)
same,GI50,P388,3.42 µM (inactive)
CC1=CC(O)C(O)C2(C)C1CC1OC(=O)C(O)C3C(C)C(O)C4(O)OCC13C42 (stereo not given),GI50,P388/ADR,> 625 µM (inactive)
same,GI50,SN12K1,3.63 µM (inactive)
same,GI50,P388,> 29 µM (inactive)
CN(CCc1cn[nH]c1)Cc1nc(C(c2ccccc2)c2ccccc2)no1,AC50,Paired box protein Pax-8,65 µM (active)
O=C(c1cc2ccccc2o1)N1CCN(Cc2ccccc2)CC1,IC50,cells [1],18.8 µM (active)
CCOC(=O)N1CCC(NC(=O)c2cc3c(-c4ccccc4F)nn(C)c3s2)CC1,IC50,H9c2,10.6 µM (active)
O=C(O)c1ccc(NS(=O)(=O)/C=C/c2ccccc2)cc1O,IC50,cells [1],16.6 µM (active)
COc1cccc2c1[C@H]1CO[C@H]3C4C[C@H](C(=O)O)C([C@@H](C2)N13)N4C (stereo not given in full),GI50,P388/ADR,0.0906 µM (active)
same,GI50,SN12K1,0.483 µM (active)
same,GI50,P388,1.08 µM (active)
O=NN(CCCl)C(=O)Nc1ccc(Cl)c(Cl)c1,GI50,P388/ADR,65 µM (inactive)
same,GI50,SN12K1,84.9 µM (inactive)
same,GI50,P388,49.1 µM (inactive)
C/C(=N\NC(=O)CSCc1ccc([N+](=O)[O-])cc1)c1cccc(Br)c1,IC50,[10],> 20 µM (inactive)
CCNC(=O)C(C)C1CCC2(C)C=CC(=O)C(C)=C2C1O (stereo not given),GI50,P388/ADR,> 100 µM (inactive)
same,GI50,SN12K1,> 100 µM (inactive)
same,GI50,P388,> 100 µM (inactive)
O=C(Nc1ccccn1)c1cc(-c2cccnc2)nc2ccc(Br)cc12,EC50,[5],8.63 µM (active)
same,EC50,[6],13.5 µM (active)
same,EC50,[7],10.9 µM (active)
COc1ccc(/C=N/NC(=O)c2cccnc2)cc1CN1CCc2ccccc2C1,IC50,H9c2,10.6 µM (active)
CCCCn1c(=O)[nH]c(=O)c2c1nc(-c1ccc(OC(F)F)c(OC)c1)n2C,EC50,[5],> 120 µM (not active)
same,EC50,[6],> 120 µM (not active)
same,EC50,[7],24.6 µM (active)
CO[C@H]1[C@@H](O)[C@@H](O)O[C@@H](O[C@H]2CC[C@@]3(C)[C@H](CC[C@@H]4[C@@H]3[C@H](O)C[C@]3(C)[C@@H](C5=CC(=O)OC5)CC[C@]43O)C2)[C@@H]1O,AC50,Paired box protein Pax-8,0.809 µM (active)
O=C(NCCCCCCNC(=O)n1cc(F)c(=O)[nH]c1=O)NCCCOCCOCCOCCOCCOCCOCCOCCOCCOCCOCCOCCOCCOCCOCCOCCOCCOCCOCCOCCOCCOCCCNC(=O)C(O)C(O)C(O)C(O)CO (stereo not given),GI50,P388/ADR,0.492 µM (active)
same,GI50,SN12K1,6.15 µM (inactive)
same,GI50,P388,0.879 µM (active)
CCN(Cc1ccccc1)S(=O)(=O)c1ccc(C(=O)N(CCCN(C)C)c2nc3cc4c(cc3s2)OCO4)cc1,IC50,[10],> 20 µM (inactive)
O=C1c2ccccc2NC(c2cnc3ccccc3n2)N1O (stereo not given),EC50,[8],> 38 µM (not active)
same,EC50,[9],> 160 µM (inactive)
O=C1OC2CC=CC1C2 (stereo not given),GI50,P388/ADR,> 100 µM (inactive)
same,GI50,SN12K1,> 100 µM (inactive)
same,GI50,P388,> 100 µM (inactive)
Oc1nnc(Cc2ccccn2)c2ccccc12,IC50,H9c2,39.4 µM (inactive)
CSc1nc2ccc(S(=O)(=O)Nc3c(C)n(C)n(-c4ccccc4)c3=O)cc2s1,IC50,H9c2,> 79 µM (inactive)
